Reference: US8912120B2, “Herbicidal compositions comprising 4-amino-3-chloro-5-fluoro-6-(4-chloro-2-fluoro-3-methoxyphenyl) pyridine-2-carboxylic acid or a derivative thereof and synthetic auxin herbicides” (Dow AgroSciences, LLC., priority 2012, dated 2014)
Counter-ions that a name gives are not always drawn.

Assays:
BRSNN = experiment: Example IV: postemergence foliar-applied herbicidal mixtures, cereal crops, BRSNN; format: in vivo, Brassica napus (volunteer canola)
Procedure: (§1) Seeds of the desired test plant species were planted in Sun Gro MetroMix 306 planting mixture, which typically has a pH of 6.0 to 6.8 and an organic matter content of about 30 percent, in plastic pots with a surface area of 103.2 square centimeters (cm^2). […] The plants were grown for 7-36 days in a greenhouse with an approximate 14 hour photoperiod which was maintained at about 18° C. during the day and 17° C. during the night.
(§2) Spray solutions of the second cereal herbicide and experimental compound mixtures were prepared by adding the stock solutions to the appropriate amount of dilution solution to form 12 mL spray solution with active ingredients in two- and three-way combinations.

VIOTR = experiment: Example IV: postemergence foliar-applied herbicidal mixtures, cereal crops, VIOTR; format: in vivo, Viola tricolor (wild pansy); conditions: after 20-22 days; 140 gai/ha
Procedure: as §1, §2

AMARE = experiment: Example IV: postemergence foliar-applied herbicidal mixtures, weed control in cereal crops in the greenhouse, AMARE; format: in vivo, Amaranthus retroflexus (redroot pigweed); conditions: alone, 20-22 days
Procedure: as §1, §2

POLCO = experiment: Example IV: postemergence foliar-applied herbicidal mixtures, cereal crops, POLCO; format: in vivo, Polygonum convolvulus (wild buckwheat); conditions: alone, 35 gai/ha, foliar, 20-22 days
Procedure: as §1, §2

ECHCG [1] = experiment: Example II: in-water applied herbicidal mixtures, transplanted paddy rice, ECHCG; format: in vivo, Echinochloa crus-galli (barnyardgrass); conditions: for Visual Weed Control (%) - 22 DAA ECHCG Obs: in-water application
Procedure: (§3) The prepared mud was dispensed in 365 mL aliquots into 16-ounce (oz.) non-perforated plastic pots with a surface area of 86.59 square centimeters (cm^2) leaving a headspace of 3 centimeters (cm) in each pot Mud was allowed to dry overnight prior to planting or transplanting. Rice seeds were planted in Sun Gro MetroMix® 306 planting mixture, which typically has a pH of 6.0 to 6.8 and an organic matter content of about 30 percent, in plastic plug trays. Seedlings at the second or third leaf stage of growth were transplanted into 840 mL of mud contained in 32-oz. non-perforated plastic pots with a surface area of 86.59 cm^2 4 days prior to herbicide application. […] Nutrients were added as Osmocote® (19:6:12, N:P:K^+ minor nutrients) at 2 g per 16-oz. pot and 4 g per 32-oz. pot.
(§4) Applications were made by injecting with a pipetter appropriate amounts of the application solutions, individually and sequentially, into the aqueous layer of the paddy. Control plants were treated in the same manner with the solvent blank. Applications were made so that all treated plant material received the same concentrations of acetone and crop oil concentrate.

ECHOR = experiment: Example II: in-water applied herbicidal mixtures, transplanted paddy rice, ECHOR; format: in vivo, Echinochloa oryzoides (early watergrass); conditions: for Visual Weed Control (%) - 22 DAA ECHOR Obs: in-water application
Procedure: as §3, §4

LEFCH [2] = experiment: Example II: in-water applied herbicidal mixtures, transplanted paddy rice, LEFCH; format: in vivo, Leptochloa chinensis (Chinese sprangletop)
Procedure: as §3, §4

SCPJU = experiment: Example II: in-water applied herbicidal mixtures, transplanted paddy rice, SCPJU; format: in vivo, Schoenoplectus juncoides (Japanese bulrush); conditions: 25 DAA
Procedure: as §3, §4

CYPRO = experiment: Example II: in-water applied herbicidal mixtures, weed control in transplanted paddy rice (greenhouse), CYPRO; format: in vivo, Cyperus rotundus (purple nutsedge); conditions: for Visual Weed Control (%) - 22 DAA CYPRO Obs: in-water application; for Visual Weed Control (%) Obs: 20 DAA
Procedure: as §3, §4

CYPIR = experiment: Example I: postemergence foliar-applied herbicidal mixtures, direct seeded rice, CYPIR; format: in vivo, Cyperus iria (rice flatsedge)
Procedure: (§5) The soil matrix was contained in plastic pots with a volume of 1 quart and a surface area of 83.6 square centimeters (cm^2). […] The plants were grown for 8-22 days in a greenhouse with an approximate 14 h photoperiod which was maintained at about 29° C. during the day and 26° C. during the night. Nutrients (Peters Excel® 15-5-15 5-Ca 2-Mg and iron chelate) were applied in the irrigation solution as needed and water was added on a regular basis. Supplemental lighting was provided with overhead metal halide 1000-Watt lamps as necessary. The plants were employed for testing when they reached the first through fourth true leaf stage.
(§6) Treatments consisted of the acid or esters of 4-amino-3-chloro-5-fluoro-6-(4-chloro-2-fluoro-3-methoxy-phenyl)pyridine-2-carboxylic acid (Compound A), each formulated as an SC (suspension concentrate), and various herbicidal components alone and in combination. Forms of compound A were applied on an acid equivalent basis.
(§7) For treatments comprised of formulated compounds, measured amounts of compounds were placed individually in 25 mL glass vials and diluted in a volume of 1.25% (v/v) Agri-Dex® crop oil concentrated to obtain 12× stock solutions. […] Application solutions were prepared by adding an appropriate amount of each stock solution (e.g., 1 mL) and diluted to the appropriate final concentrations with the addition of 10 mL of an aqueous mixture of 1.25% (v/v) crop oil concentrate so that the final spray solutions contained 1.25+/−0.05% (v/v) crop oil concentrate.
(§8) All stock solutions and applications solutions were visually inspected for compound compatibility prior to application. Spray solutions were applied to the plant material with an overhead Mandel track sprayer equipped with a 8002E nozzles calibrated to deliver 187 L/ha over an application area of 0.503 m^2 at a spray height of 18 to 20 inches (46 to 50 cm) above average plant canopy height. Control plants were sprayed in the same manner with the solvent blank.
(§9) The treated plants and control plants were placed in a greenhouse as described above and watered by sub-irrigation to prevent wash-off of the test compounds. After approximately 3 weeks, the condition of the test plants as compared with that of the untreated plants was determined visually and scored on a scale of 0 to 100 percent where 0 corresponds to no injury or growth inhibition and 100 corresponds to complete kill.
(§10) Colby's equation was used to determine the herbicidal effects expected from the mixtures (Colby, S. R. 1967. Calculation of the synergistic and antagonistic response of herbicide combinations. Weeds 15:20-22).
(§11) The following equation was used to calculate the expected activity of mixtures containing two active ingredients, A and B: Expected=A+B−(A×B/100)
(§12) A=observed efficacy of active ingredient A at the same concentration as used in the mixture.
(§13) B=observed efficacy of active ingredient B at the same concentration as used in the mixture.

LEFCH [3] = experiment: Example I: postemergence foliar-applied herbicidal mixtures, direct seeded rice, LEFCH; format: in vivo, Leptochloa chinensis (Chinese sprangletop)
Procedure: as §5, §6, §7, §8, §9, §10, §11, §12, §13

IPOHE = experiment: Example I: postemergence foliar-applied herbicidal mixtures, direct seeded rice, IPOHE; format: in vivo, Ipomoea hederacea (ivyleaf morningglory)
Procedure: as §5, §6, §7, §8, §9, §10, §11, §12, §13

SCPMA = experiment: Example II: in-water applied herbicidal mixtures, transplanted paddy rice, SCPMA; format: in vivo; conditions: 20 DAA
Procedure: as §3, §4

ECHCG [4] = experiment: Example I: postemergence foliar-applied herbicidal mixtures, direct seeded rice, ECHCG; conditions: 16 gae/ha

C[C@@H](Oc1ccc(Cl)cc1Cl)C(=O)O [Dichlorprop-P, (2R)-2-(2,4-dichlorophenoxy)propanoic acid]
Weed Control Ob (BRSNN; after 20-22 days, 140 gai/ha): 57%
Weed Control Ob (VIOTR): 27%

O=C(O)c1nc(Cl)ccc1Cl [Clopyralid, 3,6-dichloro-2-pyridinecarboxylic acid]
AMARE Ob (observed value) (AMARE; 50 gai/ha): 17%

COc1c(Cl)ccc(Cl)c1C(=O)O [Dicamba, 3,6-dichloro-2-methoxybenzoic acid]
AMARE Ob (observed value) (AMARE; 35 gai/ha): 53%
BRSNN Ob (observed value) (BRSNN; alone, 35 gai/ha, foliar, 20-22 days): 8%
POLCO Ob (observed value) (POLCO): 13%

O=C(O)COc1nc(Cl)c(Cl)cc1Cl [Triclopyr TEA Salt, 2-[(3,5,6-trichloro-2-pyridinyl)oxy]acetic acid compound with N,N-diethylethanamine, reference compound]
Visual Weed Control (%) Obs (ECHCG [1]; 25 DAA, 70 gae/ha): 0%
Visual Weed Control (%) Obs (ECHCG [1]; 25 DAA, 140 gae/ha): 0%
pest or weed control at 280 g/ha (ECHOR; Echinochloa oryzoides, 456 h, 19 DAA, 280 gae/ha, read-out: Visual Weed Control (%) Obs): 35%
pest or weed control at 70 g/ha (ECHOR; Echinochloa oryzoides, 600 h, 25 DAA, 70 gae/ha, read-out: Visual Weed Control (%) Obs): 0%
pest or weed control at 140 g/ha (ECHOR; Echinochloa oryzoides, 600 h, 25 DAA, 140 gae/ha, read-out: Visual Weed Control (%) Obs): 0%
Visual Weed Control (%) Obs (LEFCH [2]; 25 DAA, 70 gae/ha): 0%
Visual Weed Control (%) Obs (LEFCH [2]; 25 DAA, 140 gae/ha): 0%
Visual Weed Control (%) Obs (SCPJU; 70 gae/ha): 20%
Visual Weed Control (%) Obs (SCPJU; 140 gae/ha): 30%

CCCCC(CC)COC(=O)COc1ccc(Cl)cc1Cl (centres unmarked) [2,4-D EHE, 2-ethylhexyl 2-(2,4-dichlorophenoxy)acetate, reference compound]
Visual Weed Control (%) - 22 DAA CYPRO Obs (CYPRO; 140 gae/ha): 0%
Visual Weed Control (%) - 22 DAA CYPRO Obs (CYPRO; 280 gae/ha): 0%
Visual Weed Control (%) - 22 DAA ECHCG Obs (ECHCG [1]; 140 gae/ha): 0%
Visual Weed Control (%) - 22 DAA ECHCG Obs (ECHCG [1]; 280 gae/ha): 0%
Visual Weed Control (%) - 22 DAA ECHOR Obs (ECHOR; 140 gae/ha): 0%
Visual Weed Control (%) - 22 DAA ECHOR Obs (ECHOR; 280 gae/ha): 0%

COC(=O)c1nc(-c2ccc(Cl)c(OC)c2F)cc(N)c1Cl [Halauxifen-Methyl Ester, methyl 4-amino-3-chloro-6-(4-chloro-2-fluoro-3-methoxyphenyl)picolinate, reference compound]
Visual Weed Control (%) - 20 DAA CYPIR Obs (CYPIR; 2.19 gae/ha): 25%
Visual Weed Control (%) - 20 DAA CYPIR Obs (CYPIR; 4.38 gae/ha): 70%
Visual Weed Control (%) - 20 DAA LEFCH Obs (LEFCH [3]; 2.19 gae/ha): 0%
Visual Weed Control (%) - 20 DAA LEFCH Obs (LEFCH [3]; 4.38 gae/ha): 10%
Visual Weed Control (%) - 20 DAA IPOHE Obs (IPOHE; 2.19 gae/ha): 0%
Visual Weed Control (%) - 20 DAA IPOHE Obs (IPOHE; 4.38 gae/ha): 0%
Visual Weed Control (%) Obs (CYPRO; 4.38 gae/ha): 70%
Visual Weed Control (%) Obs (CYPRO; 8.75 gae/ha): 50%
Visual Weed Control (%) Obs (ECHCG [1]; 20 DAA, 4.38 gae/ha): 50%
Visual Weed Control (%) Obs (ECHCG [1]; 20 DAA, 8.75 gae/ha): 60%
pest or weed control at 4.38 g/ha (ECHOR; Echinochloa oryzoides, 480 h, 20 DAA, 4.38 gae/ha, read-out: Visual Weed Control (%) Obs): 25%
pest or weed control at 8.75 g/ha (ECHOR; Echinochloa oryzoides, 480 h, 20 DAA, 8.75 gae/ha, read-out: Visual Weed Control (%) Obs): 35%

CCCCOC(=O)c1nc(-c2ccc(Cl)c(OC)c2F)c(F)c(N)c1Cl [Compound A n-Butyl Ester]
Visual Weed Control (%) Obs (ECHOR; 19 DAA, 35 gae/ha): 80%
Visual Weed Control (%) Obs (LEFCH [2]; 19 DAA, 35 gae/ha): 43%
Visual Weed Control (%) Obs (SCPMA; 35 gae/ha): 0%
Visual Weed Control (%) Obs (SCPMA; 70 gae/ha): 0%
Visual Weed Control (%) - 19 DAA ECHCG Obs (ECHCG [4]): 65%
